Results reported in ChEMBL document CHEMBL3044832, “Synthesis and Insecticidal Activity of N-(Tolyloxybenzyl)-pyrazolecarboxamide Derivatives” (J Pestic Sci, 1999).

What was measured:
Myzus persicae [1] = test: Insecticidal activity against Myzus persicae (green peach aphid) assessed as insect mortality at 3.13 ppm; type: functional
Myzus persicae [2] = test: Insecticidal activity against Myzus persicae (green peach aphid) assessed as insect mortality at 50 ppm; type: functional
Myzus persicae [3] = test: Insecticidal activity against Myzus persicae (green peach aphid) assessed as insect mortality at 0.78 ppm; type: functional
Myzus persicae [4] = test: Insecticidal activity against Myzus persicae (green peach aphid) assessed as insect mortality at 12.5 ppm; type: functional
[5] = Acute toxicity in Mus musculus (mouse); type: organism-based; settings: in vivo
Plutella xylostella [6] = test: Insecticidal activity against Plutella xylostella (diamondback moth) assessed as insect mortality at 50 ppm; type: functional
Plutella xylostella [7] = test: Insecticidal activity against Plutella xylostella (diamondback moth) assessed as insect mortality at 12.5 ppm; type: functional
Plutella xylostella [8] = test: Insecticidal activity against Plutella xylostella (diamondback moth) assessed as insect mortality at 0.78 ppm; type: functional
Plutella xylostella [9] = test: Insecticidal activity against Plutella xylostella (diamondback moth) assessed as insect mortality at 3.13 ppm; type: functional

SMILES	mortality at 3.13 ppm (Myzus persicae [1])	mortality at 50 ppm (Myzus persicae [2])	mortality at 0.78 ppm (Myzus persicae [3])	mortality at 12.5 ppm (Myzus persicae [4])	LD50 [5]	mortality at 50 ppm (Plutella xylostella [6])	mortality at 12.5 ppm (Plutella xylostella [7])	mortality at 0.78 ppm (Plutella xylostella [8])	mortality at 3.13 ppm (Plutella xylostella [9])
Cc1ccc(Oc2ccc(CNC(=O)c3c4ccccc4nn3C)cc2)cc1	0%	0%	0%	0%					
CCc1nn(C)c(C(=O)NCc2cccc(Oc3cccc(C)c3)c2)c1Cl	0%	80%	0%	30%					
Cc1ccc(Oc2ccc(CNC(=O)c3c4c(nn3C)CCC4)cc2)cc1	0%	100%	0%	30%					
CCc1nn(C)c(C(=O)NCc2ccccc2Oc2ccc(C)cc2)c1Cl	0%	0%	0%	0%					
CCc1nn(C)c(C(=O)NCc2cccc(Oc3ccccc3C)c2)c1Cl	0%	30%	0%	30%					
CCc1nn(C)c(C(=O)NCc2cccc(Oc3ccc(C)cc3)c2)c1Cl	30%	80%	0%	80%					
CCc1nn(C)c(C(=O)NCc2ccc(Oc3ccc(C)cc3)cc2)c1Cl [TOLFENPYRAD]	100%	100%	30%	100%	> 100 mg/kg	100%	100%	0%	30%
Cc1ccc(Oc2ccc(CNC(=O)c3c(Cl)c(C)nn3C)cc2)cc1	0%	100%	0%	100%					
Cc1ccc(Oc2ccc(CNC(=O)c3c(Cl)c(C(F)(F)F)nn3C)cc2)cc1	0%	0%	0%	0%					
Cc1ccc(Oc2ccc(CNC(=O)c3c(Cl)c(C(C)(C)C)nn3C)cc2)cc1	0%	30%	0%	0%					
CCc1cc(C(=O)NCc2ccc(Oc3ccc(C)cc3)cc2)n(C)n1	0%	30%	0%	0%					
CCc1nn(C)c(C(=O)NCc2ccccc2Oc2cccc(C)c2)c1Cl	0%	0%	0%	0%					
CCc1nn(C)c(C(=O)NCc2ccc(Oc3cccc(C)c3)cc2)c1Cl	80%	100%	0%	100%					
CCCc1nn(C)c(C(=O)NCc2ccc(Oc3ccc(C)cc3)cc2)c1Cl	0%	80%	0%	0%					
CCc1nn(C)c(C(=O)NCc2ccc(COc3ccc(C)cc3)cc2)c1Cl	0%	0%	0%	0%		0%	0%	0%	0%
CC1CCc2c1nn(C)c2C(=O)NCc1ccc(Oc2ccc(C(F)(F)F)cc2)cc1 (configuration not stated)					< 30 mg/kg				
CCC1CCc2c1nn(C)c2C(=O)NCc1ccc(Oc2ccc(C)cc2)cc1 (configuration not stated)	0%	80%	0%	30%					
CCc1nn(C)c(C(=O)NCc2ccc(Oc3ccc(C)cc3)cc2)c1Br	0%	80%	0%	30%					
Cc1ccc(Oc2ccc(CNC(=O)c3c4c(nn3C)C(C)CC4)cc2)cc1 (configuration not stated)	0%	100%	0%	80%					
Cc1ccc(Oc2ccc(CNC(=O)c3c(Cl)c(C(C)C)nn3C)cc2)cc1	0%	100%	0%	30%					
CCc1nn(C)c(C(=O)NCc2ccc(Oc3ccccc3C)cc2)c1Cl	0%	100%	0%	100%					
CCc1nn(C)c(C(=O)NCc2ccccc2Oc2ccccc2C)c1Cl	0%	0%	0%	0%					
CCc1nn(C)c(C(=O)NCc2ccc(C(=O)c3ccc(C)cc3)cc2)c1Cl	0%	100%	30%	100%		100%	100%	0%	0%
CCc1nn(C)c(C(=O)NCc2ccc(Oc3ccc(C)cc3)cc2)c1OC	100%	100%	0%	100%					
CCc1nn(C)c(C(=O)NCc2ccc(Sc3ccc(C)cc3)cc2)c1Cl	0%	100%	30%	100%		30%	30%	0%	0%
CCc1nn(C)c(C(=O)NCc2ccc(Cc3ccc(C)cc3)cc2)c1Cl	0%	0%	0%	0%		80%	0%	0%	0%
